Measured values as given in patent US8598193B2, “Polycyclic agents for the treatment of respiratory syncytial virus infections” (Biota Scientific Management Pty Ltd., priority 2003, dated 2013).
In brackets after ≈: the same amount, converted by molar mass.

The molecules below were run on RSV A2 (assay: RSV antiviral cytopathic effect (CPE) assay, MTT readout). Details: human respiratory syncytial virus, HEp-2, 120 h; RSV A2 in HEp2 cells, CPE assay, MTT, approx. 5 days; read-out: Activity Range (RSV A2 antiviral EC50), compounds of Table 2.
Format: cell-based
Protocol: Method Q: RSV Antiviral Assay Protocol
Compounds of the invention were tested for their antiviral activity against respiratory syncytial virus. Cytopathic effect (CPE) assays were performed essentially as described in the literature (see for example Watanabe et al, 1. Virological Methods, 1994, 48, 257). Serial dilutions of the test compounds were made in assay medium. HEp2 cells (1.0×10^4 cells/well) were infected with RSV at a low multiplicity of infection (e.g. RSV A2 at an moi of 0.01) and 100 μL added to cultures assessing antiviral activity and cells without virus added to those assessing compound cytotoxicity. Assays were incubated for approximately 5 days at 37° C. in a 5% CO2 atmosphere. The extent of CPE was determined via metabolism of the vital dye 3-(4,5-dimethylthiaxol-2-yl)-2,5-diphenyltetrazolium bromide (MTT). A 3 mg/ml stock of MTT was made in assay medium and 100 μL added to each well, taking the final MTT concentration to […]. After 2 hours incubation at 37° C., the media-MTT solution was removed and 200 μL of isopropanol was added to dissolve the vital dye crystals. Plates were shaken and the absorbance read at 540 nm. The compound concentrations that inhibited CPE by 50% (EC50) and developed cytotoxicity (CC50) were calculated using an Excel curve fitting program.

Row | SMILES | EC50
1 | COCCOc1ccc(C23c4ccccc4C(=O)N2CCN3C(=O)c2ccc(F)cc2)cc1 (stereo not shown) [Compound 238] | 0.1 to 0.25 mg/L (≈ 0.224 to 0.56 µM)
2 | N#CCOc1ccc(C23c4ccccc4C(=O)N2CCN3C(=O)c2ccc(F)cc2)cc1 (stereo not shown) [Compound 239] | 0.1 to 0.25 mg/L (≈ 0.234 to 0.585 µM)
3 | O=C(Cc1cccc(Br)c1)N1CCN2C(=O)c3ccccc3C12c1ccc(Cl)cc1 (stereo not shown) [Compound 242] | 0.1 to 0.25 mg/L (≈ 0.208 to 0.519 µM)
4 | O=C(c1csnn1)N1CCN2C(=O)c3ccccc3C12c1ccc(Cl)cc1 (stereo not shown) [Compound 243] | < 0.1 mg/L
5 | O=C1c2ccccc2C2(c3ccc(Cl)cc3)N1CCN2C(=O)c1cccc2c1OCCO2 (stereo not shown) [Compound 245] | 0.25 to 1 mg/L (≈ 0.559 to 2.24 µM)
6 | C=CCCC(=O)N1CCN2C(=O)c3ccccc3C12c1ccc(Cl)cc1 (stereo not shown) [Compound 250] | 0.25 to 1 mg/L (≈ 0.681 to 2.73 µM)
7 | N#CCCCOc1ccc(C23c4ccccc4C(=O)N2CCN3C(=O)c2ccc(F)cc2)cc1 (stereo not shown) [Compound 260] | 0.1 to 0.25 mg/L (≈ 0.22 to 0.549 µM)
8 | O=C(c1ccc(F)cc1)N1CCN2C(=O)c3ccccc3C12c1ccc(OCCCCl)cc1 (stereo not shown) [Compound 261] | 0.1 to 0.25 mg/L (≈ 0.215 to 0.538 µM)
9 | O=C(c1ccc(F)cc1)N1CCN2C(=O)c3ccccc3C12c1ccc(OCc2ccccc2)cc1 (stereo not shown) [Compound 262] | 0.1 to 0.25 mg/L (≈ 0.209 to 0.522 µM)
10 | Cc1noc(C)c1COc1ccc(C23c4ccccc4C(=O)N2CCN3C(=O)c2ccc(F)cc2)cc1 (stereo not shown) [Compound 263] | 0.1 to 0.25 mg/L (≈ 0.201 to 0.502 µM)
11 | O=C(c1ccc(F)cc1)N1CCN2C(=O)c3ccccc3C12c1ccc(OCCCCCl)cc1 (stereo not shown) [Compound 264] | 0.25 to 1 mg/L (≈ 0.522 to 2.09 µM)
12 | O=C(c1ccc(F)cc1)N1CCN2C(=O)c3ccccc3C12c1ccc(OCCCl)cc1 (stereo not shown) [Compound 265] | 0.1 to 0.25 mg/L (≈ 0.222 to 0.554 µM)
13 | NC(=O)COc1ccc(C23c4ccccc4C(=O)N2CCN3C(=O)c2ccc(F)cc2)cc1 (stereo not shown) [Compound 266] | 0.25 to 1 mg/L (≈ 0.561 to 2.24 µM)
14 | O=C(c1ccc(F)cc1)N1CCN2C(=O)c3ccccc3C12c1ccc(OCC2CC2)cc1 (stereo not shown) [Compound 267] | < 0.1 mg/L
15 | CC(=O)COc1ccc(C23c4ccccc4C(=O)N2CCN3C(=O)c2ccc(F)cc2)cc1 (stereo not shown) [Compound 268] | 0.25 to 1 mg/L (≈ 0.562 to 2.25 µM)
16 | O=C(CSc1ccccn1)N1CCN2C(=O)c3ccccc3C12c1ccc(Cl)cc1 (stereo not shown) [Compound 299] | 0.25 to 1 mg/L (≈ 0.573 to 2.29 µM)
17 | O=C(CSc1ncccn1)N1CCN2C(=O)c3ccccc3C12c1ccc(Cl)cc1 (stereo not shown) [Compound 303] | 0.25 to 1 mg/L (≈ 0.572 to 2.29 µM)
18 | COc1ccc(CC(=O)N2CCN3C(=O)c4ccccc4C23c2ccc(C(F)(F)F)cc2)cc1 (stereo not shown) [Compound 304] | 0.25 to 1 mg/L (≈ 0.536 to 2.14 µM)
19 | CCC(=O)N1CCN2C(=O)c3ccccc3C12c1ccc(C(F)(F)F)cc1 (stereo not shown) [Compound 305] | 0.25 to 1 mg/L (≈ 0.668 to 2.67 µM)

Row | SMILES | EC50
20 | O=C(c1ccc(F)cc1)N1CCN2C(=O)c3ccccc3C12c1ccc(C(F)(F)F)cc1 (stereo not shown) [Compound 307] | 0.1 to 0.25 mg/L (≈ 0.227 to 0.568 µM)
21 | CCOc1ccc(C23c4ccccc4C(=O)N2CCN3C(=O)c2ccc(F)cc2)cc1 (stereo not shown) [Compound 308] | 0.1 to 0.25 mg/L (≈ 0.24 to 0.6 µM)
22 | CC(C)Oc1ccc(C23c4ccccc4C(=O)N2CCN3C(=O)c2ccc(F)cc2)cc1 (stereo not shown) [Compound 310] | 0.25 to 1 mg/L (≈ 0.581 to 2.32 µM)
23 | CCCOc1ccc(C23c4ccccc4C(=O)N2CCN3C(=O)c2ccc(F)cc2)cc1 (stereo not shown) [Compound 311] | 0.1 to 0.25 mg/L (≈ 0.232 to 0.581 µM)
24 | O=C(c1ccc(Cl)nc1)N1CCN2C(=O)c3ccccc3C12c1ccc(Cl)cc1 (stereo not shown) [Compound 312] | 0.25 to 1 mg/L (≈ 0.589 to 2.36 µM)
25 | O=C(c1ccc(F)nc1)N1CCN2C(=O)c3ccccc3C12c1ccc(F)cc1 (stereo not shown) [Compound 314] | 0.1 to 0.25 mg/L (≈ 0.256 to 0.639 µM)
26 | O=C(c1ccc(F)nc1)N1CCN2C(=O)c3ccccc3C12c1ccc(OCC2CC2)cc1 (stereo not shown) [Compound 316] | < 0.1 mg/L
27 | Nc1ccc(C(=O)N2CCN3C(=O)c4ccccc4C23c2ccc(Cl)cc2)cn1 (stereo not shown) [Compound 319] | 0.25 to 1 mg/L (≈ 0.618 to 2.47 µM)
28 | NCCNc1ccc(C(=O)N2CCN3C(=O)c4ccccc4C23c2ccc(Cl)cc2)cn1 (stereo not shown) [Compound 320] | 0.25 to 1 mg/L (≈ 0.558 to 2.23 µM)
29 | O=C1c2ccccc2C2(c3ccc(Cl)cc3)N1CCN2C(=O)[C@@H]1CSC(c2cccs2)=N1 (stereo partly shown) [Compound 323] | 0.25 to 1 mg/L (≈ 0.521 to 2.08 µM)
30 | O=C(c1csc(-c2cccs2)n1)N1CCN2C(=O)c3ccccc3C12c1ccc(Cl)cc1 (stereo not shown) [Compound 324] | 0.1 to 0.25 mg/L (≈ 0.209 to 0.523 µM)
31 | Cc1cc(C(=O)N2CCN3C(=O)c4ccccc4C32c2ccc(Cl)cc2)c(C)o1 (stereo not shown) [Compound 325] | < 0.1 mg/L
32 | O=C(c1ccoc1)N1CCN2C(=O)c3ccccc3C12c1ccc(Cl)cc1 (stereo not shown) [Compound 326] | 0.1 to 0.25 mg/L (≈ 0.264 to 0.66 µM)
33 | O=C(c1ccsc1)N1CCN2C(=O)c3ccccc3C12c1ccc(Cl)cc1 (stereo not shown) [Compound 327] | 0.1 to 0.25 mg/L (≈ 0.253 to 0.633 µM)
34 | O=C1c2ccccc2C2(c3ccc(Cl)cc3)N1CCN2C(=O)c1sccc1Cl (stereo not shown) [Compound 328] | 0.1 to 0.25 mg/L (≈ 0.233 to 0.582 µM)
35 | CCOc1ccsc1C(=O)N1CCN2C(=O)c3ccccc3C21c1ccc(Cl)cc1 (stereo not shown) [Compound 329] | 0.1 to 0.25 mg/L (≈ 0.228 to 0.57 µM)
36 | O=C(c1cccc(Cl)n1)N1CCN2C(=O)c3ccccc3C12c1ccc(Cl)cc1 (stereo not shown) [Compound 330] | 0.1 to 0.25 mg/L (≈ 0.236 to 0.589 µM)
37 | O=C1c2ccccc2C2(c3ccc(Cl)cc3)N1CCN2C(=O)c1nsc(Cl)c1Cl (stereo not shown) [Compound 331] | 0.25 to 1 mg/L (≈ 0.538 to 2.15 µM)
